# Results: patent publication US12435039B2, “Activators of caspase-8/c-FLIPL dimerization and their use in cancer therapy” (priority 2018, dated 2025)
# Columns and labels:
# Jurkat cells = assay: Cell viability quantification by ATP assay (CellTiter-Glo), Jurkat cells; format: cell-based, human
# Text: (§1) Cell lines—Human cervical cancer HeLa-CD95 cells (Neumann et al., 2010) (CD95-overexpressing cells) and HeLa-CD95-FL cells (CD95/c-FLIPL-overexpressing cells) were maintained in DMEM/Ham's (Merck Millipore, Germany) supplemented with 10% heat-inactivated fetal calf serum, 1% Penicillin-Streptomycin and 0.0001% Puromycin in 5% CO2. Human acute myeloid leukemia MV-4-11 cells and T lymphoma Jurkat cells were maintained in RPMI 1640 (Thermo Fisher Scientific Inc., USA) supplemented with 10% heat-inactivated fetal calf serum and 1% Penicillin-Streptomycin in 5% CO2.
# (§2) Cell viability quantification by ATP assay—50 μL of the CellTiter-Glo® solution was added to each well and measurements were performed according to manufacturer's instructions (CellTiter-Glo® Luminescent Cell Viability Assay, Promega, Germany). The luminescence intensity was analyzed by a microplate reader Infinite M200pro (Tecan, Switzerland). The viability of untreated cells was taken as one relative unit (RU). Every condition was performed in duplicate.
# [1] = system: HeLa-CD95-FL cells (CD95/c-FLIPL-overexpressing); assay: Cell viability quantification by ATP assay (CellTiter-Glo), HeLa-CD95-FL cells; format: cell-based, human
# Text: as §1, §2
# HeLa-CD95 cells [2] = assay: Cell viability quantification by ATP assay (CellTiter-Glo), HeLa-CD95 cells; format: cell-based, human
# Text: as §1, §2
# [3] = system: caspase-3/7 in Jurkat cells; assay: Caspase-3/7 activity assay (Caspase-Glo 3/7), Jurkat cells; format: cell-based, human
# Experimental: Caspase-3/7 activity assay—Caspase activity was measured by adding 50 μL of the Caspase-Glo®3/7 solution to each well. The luminescence intensity was analyzed by a microplate reader Infinite M200pro (Tecan, Switzerland) according to manufacturer's instructions (Caspase-Glo® 3/7 Assay, Promega, Germany). The caspase activity of non-treated cells was taken as one relative unit (RU). Every condition was performed in duplicate.
# [4] = system: caspase activity in HeLa-CD95 cells; assay: Caspase activity in HeLa-CD95 cells (FLIPinB); format: cell-based, human; conditions: FLIPinB with CD95L/TRAIL
# caspase-8 at the DISC = assay: Caspase-8 activity assay on CD95 DISC-IPs (Caspase-Glo 8); format: biochemical, human; conditions: CD95 DISC-IPs from HeLa-CD95 cells; 20 μM FLIPinBγ two hours, CD95L 60 ng/mL three hours
# Experimental: CD95 DISC-IP—The CD95 DISC-IP (Immunoprecipitation) from 5×10^6 HeLa-CD95 cells were done as described before (Pietkiewicz et al., 2015). In addition, DISC-IPs were washed four times with PBS, which was followed by Western Blot analysis or caspase-8 activity assays.
# Caspase-8 activity assay—Each of protein A beads samples with CD95 DISC-IPs were resuspended in 95 μL of CHAPS-Buffer (50 mM HEPES pH=7.2; 50 mM NaCl; 10 mM EDTA; 5% Glycerin; 10 mM DTT, 0.1% CHAPS) and transferred into a 96-well plate. Caspase-8 activity was measured according to manufacturer's instructions (Caspase-Glo® 8 Assay, Promega, Germany). Every condition was performed in duplicate. The luminescence intensity was analyzed by a microplate reader Infinite M200pro (Tecan, Switzerland).
# c-FLIPL = assay: Western Blot time-dependent analysis of c-FLIPL levels; format: cell-based, human; conditions: HeLa-CD95 cells; 20 μM FLIPinBγ up to 16 hours; first hours after administration
# Experimental: (§3) Analysis of total cell lysates by Western Blot analysis—The Western Blot analysis of total cellular lysates was performed in accordance to the inventors' previous reports (Schmidt et al., 2015).
# [5] = system: procaspase-8, RIPK1 and PARP cleavage in HeLa-CD95 cells; assay: Western Blot analysis of total cellular lysates, CD95L-induced cleavage; format: cell-based, human; conditions: 20 μM FLIPinBγ two hours, CD95L 60 ng/mL three hours
# Experimental: as §3
# HeLa-CD95 cells [6] = assay: Cell death detection using IncuCyte live cell imaging (Cytotox Red); format: cell-based; conditions: 40 μM FLIPinBγ two hours
# Experimental: Cell death detection using IncuCyte™ live cell imaging—HeLa-CD95 cells in a 96 well plate (5×10^3 cells/well) were pre-incubated with FLIPinBγ for 2 hours. […] To monitor cell death, cells were treated with IncuCyte™ Cytotox Red Reagent (1:4000) and Caspase-3/7 Green Apoptosis Assay Reagent (1:5000). The cells were imaged every hour by IncuCyte® ZOOM (Essen BioScience, Michigan) with a […] objective for a period of 6 hours. Every condition was performed in triplicate. Data were analyzed by the IncuCyte® ZOOM Software (2016A).
# MV-4-11 cells = assay: Cell viability quantification by ATP assay (CellTiter-Glo), MV-4-11 cells; format: cell-based, human; conditions: FLIPinBγ two hours, then CD95L 1000 ng/mL for 6 hours
# Text: as §1, §2
# [7] = system: caspase-3/7 in HeLa-CD95 cells; assay: Caspase-3/7 activity by IncuCyte live cell imaging (Caspase-3/7 Green); format: cell-based, human
compound,measurement,setting,value
"O=C(NCCOC(=O)c1cccc(S(=O)(=O)NCc2ccccc2)c1)c1ccc(-c2ccccc2)cc1 [FLIPinB, 2-[(4-phenylbenozyl)amino]ethyl 3-(benzylsulfamoyl)benzoate]",initial experimental screening of FLIPins: viability upon FLIPin/CD95L vs CD95L-only,Jurkat cells,showed the best properties in the initial selection
same,CD95L-induced loss of cell viability,Jurkat cells; FLIPinB plus CD95L vs CD95L only,enhanced
same,TRAIL-induced loss of cell viability,Jurkat cells; FLIPinB plus TRAIL,enhanced
same,resistance of HeLa-CD95-FL cells to CD95L,"[1]; HeLa-CD95-FL cells, FLIPinB plus CD95L",allowed to overcome the resistance
same,CD95L-induced loss of cell viability,HeLa-CD95 cells [2]; FLIPinB plus CD95L,enhanced
same,TRAIL-induced loss of cell viability,HeLa-CD95 cells [2]; FLIPinB plus TRAIL,enhanced
same,caspase activity,[3]; FLIPinB with CD95L/TRAIL,increased
same,caspase activity,[4],increased
"O=C(NCCOC(=O)c1cccc(S(=O)(=O)NCc2cccnc2)c1)c1ccc(-c2ccncc2)cc1 [FLIPinBγ, 2-[[4-(4-pyridyl)benzoyl]amino]ethyl 3-(3-pyridylmethylsulfamoyl)benzoate]",caspase-8 activity at the DISC,caspase-8 at the DISC,increased
same,CD95L-induced loss of cell viability,"Jurkat cells; FLIPinBγ two hours, then CD95L 60 ng/mL for 6 hours",efficiently promoted a loss of cell viability in a dose- and time-dependent manner
same,influence on c-FLIPL expression,c-FLIPL,no influence
same,relative efficiency across cell lines,[1]; HeLa-CD95-FL cells overexpressing c-FLIPL,most efficient
same,CD95L-induced loss of cell viability,"[1]; HeLa-CD95-FL cells, FLIPinBγ two hours, then CD95L 238 ng/mL for 6 hours",efficiently promoted a loss of cell viability in a dose- and time-dependent manner
same,CD95L-induced RIPK1 cleavage,[5],slight increase
same,CD95L-induced cleavage of PARP,[5],increases
same,CD95L-induced cleavage of procaspase-8 to p18,[5],increases
same,CD95L-induced cell death (Cytotox Red live cell imaging),"HeLa-CD95 cells [6]; CD95L 50 ng/mL, in the first hours",enhanced
same,TRAIL-induced cell death (Cytotox Red live cell imaging),"HeLa-CD95 cells [6]; TRAIL 100 ng/mL, most prominent in the first hours",enhanced
same,CD95L-induced loss of cell viability,MV-4-11 cells,efficiently promoted a loss of cell viability in a dose- and time-dependent manner
same,"caspase-3/7 activity in single cells, FLIPinBγ/TRAIL co-administration",[7],increase
same,"caspase-3/7 activity in single cells, FLIPinBγ/CD95L co-administration","[7]; 40 μM FLIPinBγ two hours, CD95L 50 ng/mL",increase
same,CD95L-induced loss of cell viability,"HeLa-CD95 cells [2]; FLIPinBγ two hours, then CD95L 60 ng/mL for 22 hours",efficiently promoted a loss of cell viability in a dose- and time-dependent manner
same,"caspase-3/7 activity, FLIPinBγ/CD95L co-treatment","[3]; 20 μM FLIPinBγ two hours, CD95L 60 ng/mL four hours",increase
same,"caspase-3/7 activity, FLIPinBγ/TRAIL co-treatment","[3]; 20 μM FLIPinBγ two hours, TRAIL 100 ng/mL three hours",increase
